Where “and” joins values, the source holds several entries; their conditions need not be identical. Identical values can stand only once.
Experiments:
[1] = tested on: melanoma subpanel; experiment: NCI60 five-dose, subpanel V; type: cell-based, human; conditions: for GI50: Homo sapiens, read-out: MG-MID (GI50); for GI50 / MG-MID (TGI): subpanel V; for Selectivity index (GI50) / Selectivity index (TGI): full panel MG-MID / subpanel V
Text: (§1) (2) The molar concentration of the compound responsible for total growth inhibition, also known as total growth inhibition (TGI).
(§2) Regarding subpanel selectivity toward certain cancer type, the method of determining a compound's selectivity index is to divide the full panel MG-MID (μM) value by each single subpanel. Values above six indicate high selectivity against the subpanel; moderate selectivity is denoted by values between three and six. Conversely, compounds are termed nonselective if their selectivity is less than three.[30,37]

[2] = tested on: non-small cell lung cancer subpanel; experiment: NCI60 five-dose, subpanel II; type: cell-based, human; conditions: for GI50: Homo sapiens, read-out: MG-MID (GI50); for GI50 / MG-MID (TGI): subpanel II; for Selectivity index (GI50) / Selectivity index (TGI): full panel MG-MID / subpanel II
Text: as §1, §2

[3] = tested on: ovarian cancer subpanel; experiment: NCI60 five-dose, subpanel VI; type: cell-based, human; conditions: for GI50: Homo sapiens, read-out: MG-MID (GI50); for GI50 / MG-MID (TGI): subpanel VI; for Selectivity index (GI50) / Selectivity index (TGI): full panel MG-MID / subpanel VI
Text: as §1, §2

[4] = tested on: Leukemia subpanel; experiment: NCI60 five-dose, subpanel I; type: cell-based, human; conditions: for GI50: Homo sapiens, read-out: MG-MID (GI50); for GI50 / MG-MID (TGI): subpanel I
Text: as §1, §2

[5] = tested on: CNS cancer subpanel; experiment: NCI60 five-dose, subpanel IV; type: cell-based, human; conditions: for GI50: Homo sapiens, read-out: MG-MID (GI50); for GI50 / MG-MID (TGI): subpanel IV; for Selectivity index (GI50) / Selectivity index (TGI): full panel MG-MID / subpanel IV
Text: as §1, §2

[6] = in vitro; conditions: human
Method: (§3) Further perspectives of their mechanisms of action were carried.
(§4) The preliminary in vitro antitumor investigation of our novel potential anticancer candidates was carried out by NCI, MD, USA (www.dtp.nci.nih.gov). […] Moreover, the safety profile of 4e & 4f at normal cells were evaluated.

[7] = tested on: FHC (epithelial colon cell line); experiment: in vitro; conditions: human
Method: as §3, §4

[8] = tested on: Colo-205 cells; experiment: Annexin V-FITC apoptosis assay; type: cell-based, human; conditions: treated at IC50
Text: The Annexin V-FITC/propidium iodide dual staining assay was used to assess the effect of compound (4e and 4f) on inducing apoptosis in Colo-205 cells. This assay allows for the identification of early stages of apoptosis before the loss of cell membrane integrity, allowing measurements of apoptotic death kinetics in relation to the cell cycle.
Cell Culture Unit, VACSERA, Cairo, Egypt, conducted an apoptosis investigation.
Centrifuge to collect cells, using binding buffer to resuspend cells. Pipette 5 μl of Annexine-V and 5 μl. Subsequently, incubate sample for 5 min. In R.T, dark condition. Detect Annexine V-FITC binding cells detected by FACSCaliber flow cytometer (Ex = 488 nm; Em = 530 nm) which indicate apoptotic cells. On the other side the PI stained cells detected by FL2 flow cytometer, which detect necrotic cells.[53,54]

[9] = tested on: breast cancer subpanel; experiment: NCI60 five-dose, subpanel IX; type: cell-based, human; conditions: for GI50: Homo sapiens, read-out: MG-MID (GI50); for GI50 / MG-MID (TGI): subpanel IX; for Selectivity index (GI50) / Selectivity index (TGI): full panel MG-MID / subpanel IX
Text: as §1, §2

[10] = tested on: renal cancer subpanel; experiment: NCI60 five-dose, subpanel VII; type: cell-based, human; conditions: for GI50: Homo sapiens, read-out: MG-MID (GI50); for GI50 / MG-MID (TGI): subpanel VII; for Selectivity index (GI50) / Selectivity index (TGI): full panel MG-MID / subpanel VII
Text: as §1, §2

[11] = biological target: T1, COX-2 (Homo sapiens, UniProt P35354); experiment: COX-2 inhibitor screening kit (Biovision); type: biochemical; conditions: for IC50: means ± SD of three experiments, read-out: COX2 IC50
T1 construct: purchased Biovision K547
T1 sequence (P35354 18-604): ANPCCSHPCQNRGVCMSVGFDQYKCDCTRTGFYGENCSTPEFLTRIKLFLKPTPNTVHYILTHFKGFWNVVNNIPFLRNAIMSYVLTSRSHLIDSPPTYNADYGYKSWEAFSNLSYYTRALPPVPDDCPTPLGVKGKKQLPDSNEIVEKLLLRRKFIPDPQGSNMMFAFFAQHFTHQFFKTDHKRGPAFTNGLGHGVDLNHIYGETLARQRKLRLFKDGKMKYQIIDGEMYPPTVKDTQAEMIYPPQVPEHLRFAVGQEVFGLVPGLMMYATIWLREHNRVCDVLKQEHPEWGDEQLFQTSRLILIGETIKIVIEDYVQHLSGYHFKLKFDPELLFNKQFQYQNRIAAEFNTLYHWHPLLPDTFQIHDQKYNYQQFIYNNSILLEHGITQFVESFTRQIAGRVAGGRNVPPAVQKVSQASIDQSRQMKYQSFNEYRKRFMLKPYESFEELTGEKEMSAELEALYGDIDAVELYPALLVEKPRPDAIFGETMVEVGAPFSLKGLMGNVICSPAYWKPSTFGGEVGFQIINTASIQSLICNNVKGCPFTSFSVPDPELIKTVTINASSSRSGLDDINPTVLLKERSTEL
Method: (§5) The inhibitory activity of novel 4e & 4f against COX-1/COX-2 was evaluated by using Biovision COX-1/COX-2 Inhibitor Screening Kit (Catalog #: K548) and (Catalog #: K547), respectively.

[12] = tested on: prostate cancer subpanel; experiment: NCI60 five-dose, subpanel VIII; type: cell-based, human; conditions: for GI50: Homo sapiens, read-out: MG-MID (GI50); for GI50 / MG-MID (TGI): subpanel VIII; for Selectivity index (GI50) / Selectivity index (TGI): full panel MG-MID / subpanel VIII
Text: as §1, §2

[13] = biological target: T2, COX-1 (Ovis aries, UniProt P05979); experiment: COX-1 inhibitor screening kit (Biovision); type: biochemical; conditions: means ± SD of three experiments; read-out: COX1 IC50
T2 construct: purchased Biovision K548
Method: as §5

[14] = biological target: T3, EGFR^WT (Homo sapiens, UniProt P00533); experiment: In vitro EGFR^WT inhibitory assay (BPS Bioscience kinase kit); type: biochemical; conditions: means ± SD of three experiments
T3 construct: purchased BPS Bioscience 40 321
Method: (1) Prepare the mixture of N wells × (kinase assay buffer 6 μl, ATP1 μl, PTK substrate 1 μl and water 17 μl). to every well pipette the 25 μl. […] On the contrary, add 5 μl of inhibitor buffer to control and plank wells. (3) Pipette 20 μl of EGFR^WT to test and control wells, on the blank wells pipette 20 μl kinase assay buffer. Then incubate at R.T for 40 min. (4) end the incubation after 40 min by adding to every well 50 μl of Kinase-Glo Max reagent, and incubate 15 min. By measuring the ATP quantity after kinase reaction, the activity of kinase could be detected. (5) use microplate reader to measure the luminescence.[51]

T3 sequence (P00533 25-1210): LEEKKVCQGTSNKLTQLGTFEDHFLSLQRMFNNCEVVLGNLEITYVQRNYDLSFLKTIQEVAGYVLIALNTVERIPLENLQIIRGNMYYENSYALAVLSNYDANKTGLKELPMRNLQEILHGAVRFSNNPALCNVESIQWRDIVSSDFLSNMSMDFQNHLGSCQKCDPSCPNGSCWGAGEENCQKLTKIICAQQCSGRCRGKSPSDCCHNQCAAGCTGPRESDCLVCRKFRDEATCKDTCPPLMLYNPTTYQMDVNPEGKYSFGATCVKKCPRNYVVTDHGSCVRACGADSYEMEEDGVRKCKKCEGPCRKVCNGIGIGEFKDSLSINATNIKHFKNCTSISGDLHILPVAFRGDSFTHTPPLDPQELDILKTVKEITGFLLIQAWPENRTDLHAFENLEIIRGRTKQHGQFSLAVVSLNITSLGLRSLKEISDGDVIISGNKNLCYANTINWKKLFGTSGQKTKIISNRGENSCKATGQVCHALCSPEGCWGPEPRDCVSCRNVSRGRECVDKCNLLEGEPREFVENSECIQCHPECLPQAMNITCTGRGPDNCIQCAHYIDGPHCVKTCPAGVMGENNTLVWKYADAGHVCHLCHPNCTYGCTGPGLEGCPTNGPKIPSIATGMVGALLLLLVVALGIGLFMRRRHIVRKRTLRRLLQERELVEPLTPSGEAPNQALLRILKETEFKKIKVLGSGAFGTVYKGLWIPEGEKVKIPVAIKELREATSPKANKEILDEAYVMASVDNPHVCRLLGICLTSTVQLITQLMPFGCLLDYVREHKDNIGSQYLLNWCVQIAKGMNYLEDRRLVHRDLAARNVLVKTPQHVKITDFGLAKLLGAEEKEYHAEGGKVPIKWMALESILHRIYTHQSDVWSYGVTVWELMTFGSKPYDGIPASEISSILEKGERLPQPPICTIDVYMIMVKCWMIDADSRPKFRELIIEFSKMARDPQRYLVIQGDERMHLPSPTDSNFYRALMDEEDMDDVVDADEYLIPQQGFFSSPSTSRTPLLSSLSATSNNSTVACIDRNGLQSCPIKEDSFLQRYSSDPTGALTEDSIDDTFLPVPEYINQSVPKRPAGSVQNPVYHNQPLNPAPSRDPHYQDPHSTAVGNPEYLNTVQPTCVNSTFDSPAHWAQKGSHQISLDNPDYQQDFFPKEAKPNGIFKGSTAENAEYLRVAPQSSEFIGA
T2 sequence (P05979 25-600): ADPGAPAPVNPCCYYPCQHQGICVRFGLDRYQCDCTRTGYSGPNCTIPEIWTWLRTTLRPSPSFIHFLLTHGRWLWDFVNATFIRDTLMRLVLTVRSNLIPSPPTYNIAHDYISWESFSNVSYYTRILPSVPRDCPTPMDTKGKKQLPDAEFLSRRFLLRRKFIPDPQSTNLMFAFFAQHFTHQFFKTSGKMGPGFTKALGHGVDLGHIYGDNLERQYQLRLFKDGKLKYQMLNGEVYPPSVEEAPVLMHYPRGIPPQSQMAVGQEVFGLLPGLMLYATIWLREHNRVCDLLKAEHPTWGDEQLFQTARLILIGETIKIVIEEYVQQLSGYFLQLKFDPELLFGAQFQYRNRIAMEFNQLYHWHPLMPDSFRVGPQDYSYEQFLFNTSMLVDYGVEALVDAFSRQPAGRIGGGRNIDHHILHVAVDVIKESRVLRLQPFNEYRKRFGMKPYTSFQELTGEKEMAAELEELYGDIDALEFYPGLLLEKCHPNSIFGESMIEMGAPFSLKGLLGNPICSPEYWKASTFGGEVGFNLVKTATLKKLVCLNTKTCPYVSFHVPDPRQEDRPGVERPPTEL

N#Cc1c(-c2ccc(F)cc2)nc(SCc2ccccc2)nc1N1CCNCC1 [4e, 2-(Benzylthio)-4-(4-fluorophenyl)-6-(piperazin-1-yl) pyrimidine-5-carbonitrile]
GI50 [1]: 13 µM | Selectivity index (GI50) [1]: 0.82 | Selectivity index (TGI) [1]: 0.93 | MG-MID (TGI) [1]: 25.21 µM | GI50 [2]: 11.2 µM | Selectivity index (GI50) [2]: 0.95 | Selectivity index (TGI) [2]: 0.92 | MG-MID (TGI) [2]: 25.67 µM | GI50 [3]: 13.2 µM | Selectivity index (GI50) [3]: 0.81 | Selectivity index (TGI) [3]: 0.83 | MG-MID (TGI) [3]: 28.35 µM | GI50 [4]: 5.59 µM | Selectivity index (GI50) ([4]; full panel MG-MID / subpanel I): 1.90 | MG-MID (TGI) [4]: 16.17 µM | GI50 [5]: 12.6 µM | Selectivity index (GI50) [5]: 0.85 | Selectivity index (TGI) [5]: 0.88 | MG-MID (TGI) [5]: 26.80 µM | IC50 [6]: 28.2 µM | selectivity ratio [6]: 17 | IC50 FHC [7]: 46.34 µM | Apoptosis early [8]: 19.91% | Apoptosis late [8]: 25.22% | Apoptosis total [8]: 51.07% | Necrosis [8]: 5.94% | GI50 [9]: 9.57 µM | Selectivity index (GI50) [9]: 1.11 | Selectivity index (TGI) [9]: 0.98 | MG-MID (TGI) [9]: 23.96 µM | GI50 [10]: 12.2 µM | Selectivity index (GI50) [10]: 0.87 | Selectivity index (TGI) [10]: 0.92 | MG-MID (TGI) [10]: 25.75 µM | SI (COX-2 over COX-1) [11]: 8.55 | IC50 [11]: 1.28 µM | GI50 [12]: 13.4 µM | Selectivity index (GI50) [12]: 0.79 | Selectivity index (TGI) [12]: 0.86 | MG-MID (TGI) [12]: 27.40 µM | IC50 [13]: 11 ± 0.31 µM | IC50 [14]: 0.096 ± 0.004 µM

N#Cc1c(-c2ccc(F)cc2)nc(SCc2ccc(F)cc2)nc1N1CCNCC1 [4f, 2-((4-Fluorobenzyl)thio)-4-(4-fluorophenyl)-6-(piperazin-1-yl) pyrimidine-5-carbonitrile]
GI50 [1]: 13.9 µM | Selectivity index (GI50) [1]: 0.96 | Selectivity index (TGI) [1]: 1.00 | MG-MID (TGI) [1]: 26.43 µM | GI50 [2]: 13.7 µM | Selectivity index (GI50) [2]: 0.98 | Selectivity index (TGI) [2]: 0.91 | MG-MID (TGI) [2]: 28.83 µM | GI50 [3]: 15 µM | Selectivity index (GI50) [3]: 0.89 | Selectivity index (TGI) [3]: 0.86 | MG-MID (TGI) [3]: 30.41 µM | GI50 [4]: 7.63 µM | Selectivity index (GI50) ([4]; full panel MG-MID / subpanel I): 1.76 | Selectivity index (TGI) ([4]; full panel MG-MID / subpanel I): 1.21 | MG-MID (TGI) [4]: 21.84 µM | GI50 [5]: 14.3 µM | Selectivity index (GI50) [5]: 0.94 | Selectivity index (TGI) [5]: 0.91 | MG-MID (TGI) [5]: 28.98 µM | IC50 [6]: 46.3 µM | selectivity ratio [6]: 25.3 | IC50 FHC [7]: 28.25 µM | Apoptosis early [8]: 26.15% | Apoptosis late [8]: 12.71% | Apoptosis total [8]: 43.12% | Necrosis [8]: 4.26% | GI50 [9]: 11.8 µM | Selectivity index (GI50) [9]: 1.14 | Selectivity index (TGI) [9]: 0.98 | MG-MID (TGI) [9]: 26.88 µM | GI50 [10]: 23.2 µM | Selectivity index (GI50) [10]: 0.57 | Selectivity index (TGI) [10]: 0.94 | MG-MID (TGI) [10]: 28.11 µM | SI (COX-2 over COX-1) [11]: 6.01 | IC50 [11]: 5.26 µM | GI50 [12]: 14.7 µM | Selectivity index (GI50) [12]: 0.91 | Selectivity index (TGI) [12]: 0.89 | MG-MID (TGI) [12]: 29.50 µM | IC50 [13]: 31.6 ± 0.89 µM | IC50 [14]: 0.23 µM and 0.235 µM
